Legend:
[1] = system: A375 cells co-cultured with MDA-MB-231 cells or HLF cells; experiment: Leak-free marking: stained A375 cells co-cultured with unstained cells; format: cell-based, human; details: co-cultured with MDA-MB-231 or HLF cells for 24 h; CLSM
Description: The cytocompatible nature of TCNTP and its precisely targeted interaction with organelles may account for the leak-free marking inside cells. A375 cells stained by TCNTP were co-cultured with MDA-MB-231 cells or human lung fibroblast (HLF) cells (normal human cell line), in order to evaluate whether TCNTP could be utilized to discriminate between different cell lines. TCNTP could easily stain the MDA-MB-231 cells and HLF cells in monoculture experiment (Fig. S22 ^†).
The excellent intracellular preservation of TCNTP may be used to develop novel fluorescent probes for differentiating specific cancerous cells from normal cells and for tracing diffusion, necrosis, shrinkage and suppression processes of tumor cells.
Fig. 6 The experimental scheme of TCNTP-stained (A) or Hoechst 33258-stained (F) A375 cells co-cultured with unstained cells. The CLSM imaging of co-cultivated TCNTP-stained (B) A375 cells and unstained MDA-MB-231 cells (the blue ellipses) or (D) TCNTP-stained A375 cells and unstained HLF cells (the blue ellipses). The average fluorescence intensity of TCNTP in four partial enlarged views (C and E). […] The average fluorescence intensity of Hoechst 33258 in four partial enlarged views (H and J). The blue fluorescence channel: excitation wavelength, 405 nm; emission collected, 425–485 nm. The yellow fluorescence channel: excitation wavelength, 405 nm; emission collected, 495–575 nm. […]

A375 cells = experiment: Long-term tracing of cancer cells over culture cycles (CLSM); format: cell-based, human; details: 3 μM for 4 h, after the fifth culture cycle (5 d)
Method: Due to reverse diffusion, most conventional dyes cannot be retained in living cells for more than a few hours.[35] Although some cell-tracker fluorescence dyes, for example Hoechst stains, can remain in viable cells for a few generations, they bind to DNA and thus interfere with DNA replication during cell division which can be cytotoxic. […] A375 cells were incubated separately with each of 3 μM TCNTP and Hoechst 33258. After 4 h incubation, the probe (or dye) was discarded and the labelled cells continued to be cultured overnight. Then the labelled cells were digested and divided into two dishes for another overnight incubation, referred to as one culture cycle. […] While the yellow fluorescence of TCNTP mainly distributed to cytoplasm for the third culture cycle (3 d) due to degradation of peptides and redistribution of the probe during cell division. […]
Fig. 5 The CLSM imaging of A375 cells treated with 3 μM TCNTP (A) and 3 μM Hoechst 33258 (B) for 4 h with further incubation for 1 d, 3 d and 5 d in cell culturing conditions. (C) The average fluorescence intensity of TCNTP and Hoechst 33258 in 60× microscopic field (the insets). […]
The cells stained by TCNTP were still visible even after the tenth culture cycle (Fig. S20 ^†), whereas very weak fluorescence signals were detected in the Hoechst 33258-stained cells after the third culture cycle (Fig. 5B). […]

[2] = system: MDA-MB-231 cells, HT-1080 cells, A375 cells and HLF cells; experiment: MTT assay of cell viability; format: cell-based; details: 1 μM, 5 μM and 10 μM for 48 h in triplicate, 96-well plate; absorbance 570 nm; all the cell lines
Method: Japan). All fluorescence images were analysed with FV10-ASW V4.0 Image software (Olympus). Three-dimensional map of cells were used 3D rendering by Imaris (Andor-Bitplane, Zurich). Co-localization analysis were used Image-Pro Plus 6.0.
The cytotoxic potential of PyTPE, Hoechst 33258 and TCNTP was assessed using the MTT assay. MDA-MB-231 cells, HT-1080 cells, A375cells and HLF cells were respectively treated with PyTPE (1 μM, 5 μM and 10 μM), Hoechst 33258 (1 μM, 5 μM and 10 μM) and TCNTP (1 μM, 5 μM and 10 μM) for 48 h in triplicate in a 96-well plate. The absorbance of MTT at 570 nm was recorded by the Infinite M200 PRO […]
Fig. S21 Metabolic viability of (A) MDA-MB-231 cells, (B) HT-1080 cells, (C) A375 cells and (D) HLF cells after incubation with PyTPE and TCNTP at concentrations of 1 μM, 5 µM and 10 µM for 48 h. Black bars represent PyTPE, red bars represent TCNTP and blue bars […]
Fig. S22 Fluorescence images of HLF cells treated with 3 µM PyTPE (A) and TCNTP (B) with Hoechst 33258 of each formulation for 12h in cell culturing condition. The white scale […]

Compound: CN1CCN(c2ccc3[nH]c(-c4ccc5[nH]c(-c6ccc(O)cc6)nc5c4)nc3c2)CC1 [Hoechst 33258]
- leakage of dye from stained A375 cells into unstained cells [1]: fast leakage
- Active Cells Remaining (number of remaining stained living cells) (A375 cells; 10× microscopic field): 2%
- Signal Remaining (fluorescence signal remaining) (A375 cells; 60× microscopic field): 6%
- toxicity by MTT assay of cell viability [2]: high toxicity
